This note sets out measurements from patent US12421212B2, “Substituted benzenecarboxamides as IL-17A modulators” (DiCE Alpha, Inc., priority 2019, dated 2025).

Molecules are shown by their SMILES.

The target of one assay is T1, IL-17A/A (Homo sapiens, UniProt Q16552).
T1 construct: purchased Genscript Z03228
T1 sequence (Q16552 24-155): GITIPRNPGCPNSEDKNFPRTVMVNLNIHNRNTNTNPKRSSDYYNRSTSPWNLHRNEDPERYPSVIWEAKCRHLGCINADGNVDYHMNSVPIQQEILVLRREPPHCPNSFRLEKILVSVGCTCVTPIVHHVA
As to the kind of experiment: IL-17A/A HEK-Blue Cell Assay. The assay is classed as cell-based. The note with it: HEK-Blue IL-17A reporter cell line, SEAP readout at A630, 20 hours incubation with IL-17A/A; top concentration 10 uM, 1 uM or 0.3 uM.
Consider `CCC(=O)N[C@@H](C(=O)N1CCN(C)CC1)[C@@H](C)c1ccc(NC(=O)[C@H](NC(=O)c2ccnn2CC)[C@H]2CC[C@H](C)CC2)c(F)c1` [Compound 541], for which the “IL-17A/A inhibition (pIC50)” value is “X3b (compounds were evaluated up to 0.3 uM and inhibited activity at 0.3 uM by less than 20%)”.
On the same count and under the same terms, the result for `CCC(=O)N[C@H](C(=O)N1CCN(C)CC1)[C@H](C)c1ccc(NC(=O)[C@@H](NC(=O)c2ccnn2CC)[C@H]2CC[C@H](C)CC2)c(F)c1` [Compound 542] reads “X3b (compounds were evaluated up to 0.3 uM and inhibited activity at 0.3 uM by less than 20%)”.
Same read-out and setting: the result for `CCC(=O)N[C@H](C(=O)N1CCN(C)CC1)[C@@H](C)c1ccc(NC(=O)[C@@H](NC(=O)c2ccnn2CC)[C@H]2CC[C@H](C)CC2)c(F)c1` [Compound 543] reads “X3b (compounds were evaluated up to 0.3 uM and inhibited activity at 0.3 uM by less than 20%)”.
Still for that read-out and setting: the result for `CCC(=O)N[C@@H](C(=O)N1CCN(C)CC1)[C@H](C)c1ccc(NC(=O)[C@@H](NC(=O)c2ccnn2CC)[C@H]2CC[C@H](C)CC2)c(F)c1` [Compound 544] reads “X3a (compounds were evaluated up to 0.3 uM and did not inhibit activity by >80%, however they showed some activity at 0.3 uM (less than 80% and more than 20%))”; that for `CCC(=O)N[C@@H](C(=O)N1CCN(C)CC1)[C@@H](C)c1ccc(NC(=O)[C@@H](NC(=O)c2cnon2)[C@H]2CC[C@H](C)CC2)c(F)c1` [Compound 547], “X3b (compounds were evaluated up to 0.3 uM and inhibited activity at 0.3 uM by less than 20%)”; that for `C[C@@H](c1ccc(NC(=O)[C@@H](NC(=O)c2cnon2)[C@H]2CC[C@H](C)CC2)c(F)c1)[C@@H](NC(=O)c1cnns1)C(=O)N1CCN(C)CC1` [Compound 548], “X2b (compounds were evaluated up to 1 uM and inhibited activity at 1 uM by less than 20%)”.
On to `CCC(=O)N[C@@H](C(=O)N1CCN(C)CC1)[C@@H](C)c1ccc(NC(=O)C(NC(=O)c2nonc2CC)C(CC)c2ccc(Cl)cc2)c(F)c1` (stereo partly drawn) [Compound 567], for which the “IL-17A/A inhibition (pIC50)” value is “X2b (compounds were evaluated up to 1 uM and inhibited activity at 1 uM by less than 20%)”.
On the same count and under the same terms, the result for `CCc1nonc1C(=O)N[C@H](C(=O)Nc1ccc([C@H](C)[C@@H](NC(=O)c2ncns2)C(=O)N2CCN(C)CC2)cc1F)[C@H]1CC[C@H](C)CC1` [Compound 575] reads “X3a (compounds were evaluated up to 0.3 uM and did not inhibit activity by >80%, however they showed some activity at 0.3 uM (less than 80% and more than 20%))”.
Same read-out and setting: the result for `CCc1nonc1C(=O)N[C@H](C(=O)Nc1ccc([C@H](C)[C@@H](NC(=O)c2ncccc2OC)C(=O)N2CCN(C)CC2)cc1F)[C@H]1CC[C@H](C)CC1` [Compound 578] reads “X3b (compounds were evaluated up to 0.3 uM and inhibited activity at 0.3 uM by less than 20%)”.
With `CCC(=O)N[C@@H](C(=O)N1CC(n2ccnc2)C1)[C@@H](C)c1ccc(NC(=O)[C@@H](NC(=O)c2nonc2CC)[C@H]2CC[C@H](C)CC2)c(F)c1` [Compound 580], the “IL-17A/A inhibition (pIC50)” value is “X3a (compounds were evaluated up to 0.3 uM and did not inhibit activity by >80%, however they showed some activity at 0.3 uM (less than 80% and more than 20%))”.
For the compound `CCC(=O)N[C@@H](C(=O)N1CCN(C)CC1)[C@@H](C)c1ccc(NC(=O)C(NC(=O)c2ccnn2CC)C(C)C2CCC(C)CC2)c(F)c1` (stereo partly drawn) [Compound 612], the “IL-17A/A inhibition (pIC50)” value is “X2b (compounds were evaluated up to 1 uM and inhibited activity at 1 uM by less than 20%)”.

Still in this assay, the particulars now being: HEK-Blue IL-17A reporter cell line, SEAP readout at A630, 20 hours incubation with IL-17A/A; top concentration 10 uM, 1 uM or 0.3 uM; read-out: IL-17A/A inhibition (pIC50) (converted).
Regarding `CCC(=O)N[C@@H](C(=O)N1CCN(C)CC1)[C@@H](C)c1ccc(NC(=O)[C@@H](NC(=O)c2ccnn2C2COC2)[C@H]2CC[C@H](C)CC2)c(F)c1` [Compound 545], the IC50 was 10 to 100 nM.
For `C[C@@H](c1ccc(NC(=O)[C@@H](NC(=O)c2ccnn2C2COC2)[C@H]2CC[C@H](C)CC2)c(F)c1)[C@@H](NC(=O)c1cnns1)C(=O)N1CCN(C)CC1` [Compound 546], the IC50 was 10 to 100 nM.
Still for that read-out and setting: the result for `CCC(=O)N[C@@H](C(=O)N1CCN(C)CC1)[C@@H](C)c1ccc(NC(=O)[C@@H](NC(=O)c2nonc2C(C)C)[C@H]2CC[C@H](C)CC2)c(F)c1` [Compound 549] reads under 10 nM; that for `CC(C)c1nonc1C(=O)N[C@H](C(=O)Nc1ccc([C@H](C)[C@@H](NC(=O)c2cnns2)C(=O)N2CCN(C)CC2)cc1F)[C@H]1CC[C@H](C)CC1` [Compound 550], under 10 nM.
The same measure, in the same setting: the result for `CCC(=O)N[C@@H](C(=O)N1CCN(C)CC1)[C@@H](C)c1ccc(NC(=O)[C@@H](NC(=O)c2nonc2OC)[C@H]2CC[C@H](C)CC2)c(F)c1` [Compound 551] reads 10 to 100 nM; that for `COc1nonc1C(=O)N[C@H](C(=O)Nc1ccc([C@H](C)[C@@H](NC(=O)c2cnns2)C(=O)N2CCN(C)CC2)cc1F)[C@H]1CC[C@H](C)CC1` [Compound 552], 10 to 100 nM.
`CCC(=O)N[C@@H](C(=O)N1CCN(C)CC1)[C@@H](C)c1ccc(NC(=O)C(NC(=O)c2nonc2CC)C(CC)c2ccc(Cl)cc2)c(F)c1` (stereo partly drawn) [Compound 566]: the IC50 is 10 to 100 nM.
Still for that read-out and setting: the result for `CCC(=O)N[C@@H](C(=O)N1CCN(C)CC1)C(OC)c1ccc(NC(=O)[C@@H](NC(=O)c2ccnn2CC)[C@H]2CC[C@H](C)CC2)c(F)c1` (stereo partly drawn) [Compound 572] reads 100 to 10000 nM; that for `[2H]C1([2H])N(C)C([2H])([2H])C([2H])([2H])N(C(=O)[C@H](NC(=O)CC)[C@@H](C)c2ccc(NC(=O)[C@@H](NC(=O)c3ccnn3CC)[C@H]3CC[C@H](C)CC3)c(F)c2)C1([2H])[2H]` [Compound 573], under 10 nM; that for `CCc1nonc1C(=O)N[C@H](C(=O)Nc1ccc([C@H](C)[C@@H](NC(=O)N(CC)C2CC2)C(=O)N2CCN(C)CC2)cc1F)[C@H]1CC[C@H](C)CC1` [Compound 574], under 10 nM.
On to `CCc1nonc1C(=O)N[C@H](C(=O)Nc1ccc([C@H](C)[C@@H](NC(=O)c2cccnc2OC)C(=O)N2CCN(C)CC2)cc1F)[C@H]1CC[C@H](C)CC1` [Compound 576], for which the IC50 is 10 to 100 nM.
Same read-out and setting: the result for `CCc1nonc1C(=O)N[C@H](C(=O)Nc1ccc([C@H](C)[C@@H](NC(=O)c2c(OC)cnn2CC)C(=O)N2CCN(C)CC2)cc1F)[C@H]1CC[C@H](C)CC1` [Compound 577] reads 10 to 100 nM; that for `CCc1nonc1C(=O)N[C@H](C(=O)Nc1ccc([C@H](C)[C@@H](NC(=O)c2ccnc3c2OCCO3)C(=O)N2CCN(C)CC2)cc1F)[C@H]1CC[C@H](C)CC1` [Compound 579], 10 to 100 nM.
As for `CCC(=O)N[C@@H](C(=O)N1CCN(C)CC1)[C@@H](C)c1ccc(NC(=O)[C@@H](NC(=O)c2nonc2C)[C@H]2CC[C@H](C)CC2)c(F)c1` [Compound 582], the IC50 was 10 to 100 nM.
The same measure, in the same setting: the result for `Cc1nonc1C(=O)N[C@H](C(=O)Nc1ccc([C@H](C)[C@@H](NC(=O)c2cnns2)C(=O)N2CCN(C)CC2)cc1F)[C@H]1CC[C@H](C)CC1` [Compound 583] reads under 10 nM.
Still for that read-out and setting: the result for `CCC(=O)N[C@@H](C(=O)N1CCN(C)CC1)[C@@H](C)c1ccc(NC(=O)[C@@H](NC(=O)c2nonc2CC)[C@H](C)[C@H]2CC[C@H](C)CC2)c(F)c1` [Compound 586] reads under 10 nM.
The same measure, in the same setting: the result for `CCC(=O)N[C@@H](C(=O)N1CCN(C)CC1)[C@@H](C)c1ccc(NC(=O)[C@@H](NC(=O)c2ccnn2CC)[C@H](C)[C@H]2CC[C@H](C)CC2)c(F)c1` [Compound 587] reads 10 to 100 nM.
Take `CCn1nnnc1C(=O)N[C@H](C(=O)Nc1ccc([C@H](C)[C@@H](NC(=O)N(C)C2CC2)C(=O)N2CCN(C)[C@H](C)C2)cc1F)[C@H]1CC[C@H](C)CC1` [Compound 604]: the IC50 was under 10 nM.
Same read-out and setting: the result for `CCn1nnnc1C(=O)N[C@H](C(=O)Nc1ccc([C@H](C)[C@@H](NC(=O)C(C)(F)F)C(=O)N2CCN(C)[C@H](C)C2)cc1F)[C@H]1CC[C@H](C)CC1` [Compound 605] reads 10 to 100 nM; that for `CCC(=O)N[C@@H](C(=O)N1CCN(C)CC1)[C@@H](C)c1ccc(NC(=O)C(NC(=O)c2nonc2CC)C(C)C2CCC(F)(F)CC2)c(F)c1` (stereo partly drawn) [Compound 607], 10 to 100 nM.
Still for that read-out and setting: the result for `CCC(=O)N[C@@H](C(=O)N1CCN(C)CC1)[C@@H](C)c1ccc(NC(=O)[C@@H](NC(=O)c2ccnn2CC)[C@H](OC)c2ccc(F)cc2)c(F)c1` [Compound 610] reads 100 to 10000 nM.
Regarding `CCC(=O)N[C@@H](C(=O)N1CCN(C)CC1)[C@@H](C)c1ccc(NC(=O)[C@@H](NC(=O)c2nonc2CC)[C@H](OC)c2ccc(F)cc2)c(F)c1` [Compound 611], the IC50 is 10 to 100 nM.
On the same count and under the same terms, the result for `COc1ccc(C(F)(F)C(=O)N[C@H](C(=O)Nc2ccc([C@H](C)[C@@H](NC(=O)c3cnns3)C(=O)N3CCN(C)CC3)cc2F)[C@H]2CC[C@H](C)CC2)cn1` [Compound 620] reads under 10 nM; that for `COc1ncc(C(F)(F)C(=O)N[C@H](C(=O)Nc2ccc([C@H](C)[C@@H](NC(=O)c3cnns3)C(=O)N3CCN(C)CC3)cc2F)[C@H]2CC[C@H](C)CC2)cn1` [Compound 621], 10 to 100 nM; that for `COc1ccc(C(F)(F)C(=O)N[C@H](C(=O)Nc2ccc([C@H](C)[C@@H](NC(=O)c3cnsc3)C(=O)N3CCN(C)CC3)cc2F)[C@H]2CC[C@H](C)CC2)cn1` [Compound 622], 10 to 100 nM.
The same measure, in the same setting: the result for `CCn1nccc1C(=O)N[C@H](C(=O)Nc1ccc(C[C@@H](NC(=O)c2ccnn2-c2ccc(=O)[nH]c2)C(=O)N2CCN(C)CC2)cc1F)C1CCCCC1` [Compound 623] reads 100 to 10000 nM; that for `CCn1nccc1C(=O)N[C@H](C(=O)Nc1ccc([C@H](C)[C@@H](NC(=O)c2cc(C#N)cs2)C(=O)N2CCN(C)CC2)cc1F)C1CCCCC1` [Compound 624], 100 to 10000 nM.
Take `CCC(=O)N[C@@H](C(=O)N1CCN(C)CC1)[C@@H](C)c1ccc(NC(=O)[C@@H](NC(=O)C(F)(F)C23CC(C2)C3)C2CCCCC2)c(F)c1` [Compound 625]: the IC50 is 100 to 10000 nM.
